One compound from patent publication US20030166715A1, “Use of vitaletheine modulators in the prophylaxis and treatment of disease” (priority 1990, published 2003) can be followed below.

In assay [1] the test system is Cloudman S-91 murine melanoma cells. The assay can be described thus: Treatment of murine Cloudman S-91 melanoma in mice, tumor volume. It is filed as in vivo, mouse. The method, then: This regimen is predicated on the observation that certain enzymes thought to be responsive to these compounds, and which may pay a role in the reported results, are induced 48 hours after chemical stimulation. […] Data presented is calculated from measured tumor diameters, including mice with no tumor. Error bars indicate standard error of the mean.
Cloudman S-91 murine melanoma cells (American Type Culture Collection #53.1, Clone M-3) from a (C X DBA)F1 male mouse were grown in 75 ml flasks (Corning Glass Works, Corning, N.Y., USA) containing Ham's F12 medium supplemented with 15% fetal bovine serum, penicillin (100 U/ml), and streptomycin (100 μg/ml), all commercially available from Sigma Chemical Company, St. Louis, Mo., USA. Cultures were incubated at 37° C. under 5.5% carbon dioxide initially at 6×10^6 cells per ml for two days, with a medium change after one day. Cultures were then trypsinized, split into two fresh flasks at one half the cell density, above, and maintained for one week prior to injection in female (DBA X BALB c) mice (CD2F1/Hsd from Harlan Sprague Dawley, Inc., Indianapolis, Ind., USA). For inoculation, cells were first trypsinized, washed 3 times in phosphate buffered saline, and diluted to 1×10^5 cells/100 μl phosphate buffered saline prior to subcutaneous injection in the flank.
The compounds were dissolved in water, filtered through an appropriate sterilizing filter (0.22 μm non-pyrogenic, μ Star LB™ from Costar®, Cambridge, Mass., USA), diluted to the desired concentration in sterile, physiological saline (0.1 ml), and injected intraperitoneally with a 27 gauge, ⅜ inch allergy syringe (Becton Dickinson, Rutherford, N.J., USA); by gently lifting the skin on the abdomen of supine mice and injecting horizontally, puncture of peritoneal organs is avoided, thereby minimizing trauma to the mice.

Another assay deals with human BFU-E. The assay can be described thus: Modulation of erythropoiesis: colony formation from human BFU-E in plasma clot culture. It is filed as cell-based. Particulars: 18 h initial incubation with vitalethine; compared with levels initially containing erythropoietin (FIG. 3a). From the text: (§1) Colony formation from the early murine progenitors not exposed to vitalethine, and either initially exposed to or initially deprived of erythropoietin are represented by upper and lower triangles, respectively. […] Bars are standard error of the mean.
(§2) Human bone marrow cells were obtained as surplus from experiments performed on material aspirated from normal volunteers with IRB approval and informed written consent. Peripheral blood cells were obtained from commercially purchased buffy coats or surgical waste (umbilical cord blood). Mouse bone marrow was flushed from femurs and obtained as surplus from experiments performed on C57B1/6 mice with animal committee approval. Human light density cells were separated by centrifugation over Ficoll-daitrizoate (SG 1.075) and depleted of adherent cells by incubation on serum coated plastic. Mouse cells were used without further fractionation. […] One unit per ml of erythropoietin and medium without added factors served as positive and negative controls. Initial incubations were carried out for 18 hours at 37° . […]

In the next assay the test system is CFU-E progenitors. The experiment in a line: Modulation of erythropoiesis: colony formation from CFU-E progenitors in plasma clot culture. It is filed as cell-based, murine. As to conditions: depending upon concentration (FIG. 3a).
Source text: as §1, §2

The next assay concerns CFU-E and BFU-E. The assay can be described thus: Modulation of erythropoiesis: stimulation of colony formation synergistically with erythropoietin (FIG. 3a/3b). It is filed as cell-based.
Source text: as §1, §2

Take `O=C(O)NCCC(=O)NCCSSCCNC(=O)CCNC(=O)O` [vitalethine, N,N′-(dithiodi-2,1-ethanediyl)-bis-(3-carboxyamino-propan-amide)]: the average tumor volume entry in assay [1] (100 pg/kg mouse (FIG. 1b)) and in assay [1] (10 fg/kg mouse (FIG. 1a)) was “diminishes average tumor volume substantially” each time. For the same compound, the “diminution of tumor volume compared to saline controls” value in assay [1] (10 femtogram/kg mouse intraperitoneally three times per week, beginning second day after tumor inoculation) is about 70%. The “colony formation from human BFU-E initially deprived of erythropoietin” value in the assay with human BFU-E is “increased”. The “erythropoiesis from the CFU-E progenitors” value with CFU-E progenitors is “either enhances or minimizes erythropoiesis”. The “concentration necessary for a similar response (stimulation of colony formation)” value in the assay on CFU-E and BFU-E is “about 10 pg/ml”.
